Series [1] concerns the target Solute carrier organic anion transporter family member 1B3 (Homo sapiens, UniProt Q9NPD5). Kind of series: Inhibition of human OATP1B3 expressed in BacMam baculovirus virus infected HEK MSR2 cells using [3H]estradiol 17beta-D-glucuronide as substrate by liquid scintillation counting analysis. The series is classed as ADME, HEK293.
For series [2], the target named is UDP-glucuronosyltransferase 2B4 (Homo sapiens, UniProt P06133). Kind of series: Drug metabolism assessed as UDPGA-fortified human recombinant UGT2B4-mediated DTG glucuronide metabolite ((2S,3S,4S,5R,6S)-6-((4R,12aS)-9-(2,4-difluorobenzylcarbamoyl)-4-methyl-6,8-dioxo-3,4,6,8,12,12a-hexahydro-2H-[1,3]oxazino[3,2-d]pyrido[1,2-a]pyrazin-7-yloxy)-3,4,5-trihydroxytetrahydro-2H-pyran-2-carboxylic acid) formation at 16 uM after 120 mins by radio-HPLC analysis. Format: ADME. To be noted: recombinant enzyme.
UDP-glucuronosyltransferase 2B4, sequence (P06133 whole entry): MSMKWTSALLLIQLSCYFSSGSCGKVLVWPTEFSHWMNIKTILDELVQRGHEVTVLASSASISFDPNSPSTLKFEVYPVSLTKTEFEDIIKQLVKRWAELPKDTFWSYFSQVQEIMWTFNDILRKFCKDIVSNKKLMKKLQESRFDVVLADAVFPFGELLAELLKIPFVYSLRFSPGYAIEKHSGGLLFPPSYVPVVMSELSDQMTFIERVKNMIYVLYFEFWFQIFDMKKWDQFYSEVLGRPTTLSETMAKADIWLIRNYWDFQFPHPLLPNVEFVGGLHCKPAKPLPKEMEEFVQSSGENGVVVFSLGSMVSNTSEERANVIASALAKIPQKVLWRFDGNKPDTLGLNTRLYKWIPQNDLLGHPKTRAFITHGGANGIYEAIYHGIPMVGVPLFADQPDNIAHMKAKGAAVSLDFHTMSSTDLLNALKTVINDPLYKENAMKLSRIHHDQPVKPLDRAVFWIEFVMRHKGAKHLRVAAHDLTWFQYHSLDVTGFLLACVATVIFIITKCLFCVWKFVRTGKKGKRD

For another series, the target named is MDR1 (P-gp, ABCB1) (Homo sapiens, UniProt P08183). In words: Activity at human MDR1 expressed in MDCK2 cells assessed as apical to basolateral mass balance at 3 uM by liquid scintillation counting analysis in presence of 3 uM P-gp and BCRP inhibitor GF120918. Format: ADME, cell-based, MDCK-II. To be noted: with GF120918 (P-gp and BCRP inhibitor), read-out: Activity.
MDR1 (P-gp, ABCB1), sequence (P08183 whole entry): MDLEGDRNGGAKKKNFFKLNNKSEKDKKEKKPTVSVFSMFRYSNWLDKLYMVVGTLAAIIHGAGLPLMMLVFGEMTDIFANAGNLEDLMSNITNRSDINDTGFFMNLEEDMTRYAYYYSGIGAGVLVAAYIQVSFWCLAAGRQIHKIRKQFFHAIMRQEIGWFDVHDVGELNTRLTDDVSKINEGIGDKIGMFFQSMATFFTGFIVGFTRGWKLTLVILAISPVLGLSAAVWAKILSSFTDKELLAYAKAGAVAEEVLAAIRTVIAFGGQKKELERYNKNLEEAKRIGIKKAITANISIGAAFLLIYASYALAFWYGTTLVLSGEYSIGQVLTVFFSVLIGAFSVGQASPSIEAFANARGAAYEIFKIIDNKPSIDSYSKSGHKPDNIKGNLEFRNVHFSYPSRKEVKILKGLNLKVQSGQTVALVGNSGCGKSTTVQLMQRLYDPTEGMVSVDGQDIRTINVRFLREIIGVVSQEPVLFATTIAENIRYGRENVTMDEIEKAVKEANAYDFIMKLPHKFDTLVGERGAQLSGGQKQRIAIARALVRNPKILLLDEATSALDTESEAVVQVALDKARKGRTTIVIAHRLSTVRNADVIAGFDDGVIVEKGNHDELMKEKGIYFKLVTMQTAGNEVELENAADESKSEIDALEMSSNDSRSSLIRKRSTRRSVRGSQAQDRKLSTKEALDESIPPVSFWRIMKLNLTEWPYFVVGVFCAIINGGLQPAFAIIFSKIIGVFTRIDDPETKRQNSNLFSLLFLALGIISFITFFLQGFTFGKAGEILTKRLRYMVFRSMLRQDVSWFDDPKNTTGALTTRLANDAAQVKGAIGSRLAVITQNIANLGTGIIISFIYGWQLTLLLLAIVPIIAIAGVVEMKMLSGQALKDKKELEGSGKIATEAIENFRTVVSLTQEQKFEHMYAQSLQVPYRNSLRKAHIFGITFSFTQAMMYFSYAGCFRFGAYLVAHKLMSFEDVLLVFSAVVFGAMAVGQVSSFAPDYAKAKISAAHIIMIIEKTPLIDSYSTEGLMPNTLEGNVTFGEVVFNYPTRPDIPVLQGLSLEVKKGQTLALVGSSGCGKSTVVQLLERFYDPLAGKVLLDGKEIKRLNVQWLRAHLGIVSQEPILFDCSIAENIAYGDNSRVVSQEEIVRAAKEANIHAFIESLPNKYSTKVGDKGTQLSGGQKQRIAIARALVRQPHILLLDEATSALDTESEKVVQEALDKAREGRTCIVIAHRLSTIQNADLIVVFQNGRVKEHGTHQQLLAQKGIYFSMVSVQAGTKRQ

The target of another series is T1, Cytochrome P450 1A2 (Homo sapiens, UniProt P05177).
T1 sequence (P05177 whole entry): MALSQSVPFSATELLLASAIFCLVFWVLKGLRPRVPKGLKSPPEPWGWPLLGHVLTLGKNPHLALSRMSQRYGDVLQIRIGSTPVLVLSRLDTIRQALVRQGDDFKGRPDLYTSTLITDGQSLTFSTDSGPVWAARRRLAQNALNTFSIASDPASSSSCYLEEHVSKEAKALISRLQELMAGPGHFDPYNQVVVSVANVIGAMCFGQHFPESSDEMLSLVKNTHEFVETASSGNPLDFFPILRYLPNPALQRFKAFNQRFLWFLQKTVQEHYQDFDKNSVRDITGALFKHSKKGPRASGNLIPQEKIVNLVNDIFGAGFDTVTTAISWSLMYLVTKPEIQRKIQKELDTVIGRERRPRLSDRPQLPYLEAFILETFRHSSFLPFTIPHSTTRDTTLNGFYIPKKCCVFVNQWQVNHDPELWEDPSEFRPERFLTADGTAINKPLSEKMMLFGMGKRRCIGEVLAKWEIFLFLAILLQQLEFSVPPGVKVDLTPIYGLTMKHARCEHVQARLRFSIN
In words: Metabolism-dependent inhibition of CYP1A2 in human liver microsomes using phenacetin as substrate preincubated for 20 mins with NADPH prior to initiation of reaction with probe substrate by HPLC analysis. The series is classed as ADME.

The target of series [3] is T2, Broad substrate specificity ATP-binding cassette transporter ABCG2 (Homo sapiens, UniProt Q9UNQ0).
T2 sequence (Q9UNQ0 whole entry): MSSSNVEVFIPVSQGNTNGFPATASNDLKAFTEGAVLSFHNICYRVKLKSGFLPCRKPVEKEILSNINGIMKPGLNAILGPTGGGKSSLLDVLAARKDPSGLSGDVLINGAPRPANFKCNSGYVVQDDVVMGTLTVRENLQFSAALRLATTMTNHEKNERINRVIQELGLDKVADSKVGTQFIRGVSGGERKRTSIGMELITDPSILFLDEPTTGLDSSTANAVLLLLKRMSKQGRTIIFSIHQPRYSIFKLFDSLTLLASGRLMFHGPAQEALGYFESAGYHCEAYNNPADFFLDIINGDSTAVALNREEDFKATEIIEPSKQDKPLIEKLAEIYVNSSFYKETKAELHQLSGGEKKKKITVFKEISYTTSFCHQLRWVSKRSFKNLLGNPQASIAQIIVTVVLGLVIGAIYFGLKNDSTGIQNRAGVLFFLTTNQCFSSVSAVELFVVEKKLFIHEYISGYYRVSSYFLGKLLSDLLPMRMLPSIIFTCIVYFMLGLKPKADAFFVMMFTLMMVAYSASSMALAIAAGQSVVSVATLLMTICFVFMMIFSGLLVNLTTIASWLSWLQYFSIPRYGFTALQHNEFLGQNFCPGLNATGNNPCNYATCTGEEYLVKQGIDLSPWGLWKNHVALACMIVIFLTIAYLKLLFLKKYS
Kind of series: Inhibition of BCRP (unknown origin) expressed in MDCK2 cells assessed as basolateral to apical transport of [14C]cimetidine at 100 uM after 90 mins by liquid scintillation counting analysis. Conditions: mdck-ii, 1.5 h. The series is classed as ADME, cell-based.

Series [4] can be described thus: Drug excretion in human urine at 20 mg, po. To be noted: read-out: Drug excretion. The series is classed as ADME, tissue-based.
Series [5] concerns the target UDP-glucuronosyltransferase 1A3 (Homo sapiens, UniProt P35503). Kind of series: Drug metabolism assessed as UDPGA-fortified human recombinant UGT1A3-mediated DTG glucuronide metabolite ((2S,3S,4S,5R,6S)-6-((4R,12aS)-9-(2,4-difluorobenzylcarbamoyl)-4-methyl-6,8-dioxo-3,4,6,8,12,12a-hexahydro-2H-[1,3]oxazino[3,2-d]pyrido[1,2-a]pyrazin-7-yloxy)-3,4,5-trihydroxytetrahydro-2H-pyran-2-carboxylic acid) formation at 16 uM after 120 mins by radio-HPLC analysis. Format: ADME. Conditions: recombinant enzyme.

In series [6] the target is UDP-glucuronosyltransferase 2B7 (Homo sapiens, UniProt P16662). In words: Drug metabolism assessed as UDPGA-fortified human recombinant UGT2B7-mediated DTG glucuronide metabolite ((2S,3S,4S,5R,6S)-6-((4R,12aS)-9-(2,4-difluorobenzylcarbamoyl)-4-methyl-6,8-dioxo-3,4,6,8,12,12a-hexahydro-2H-[1,3]oxazino[3,2-d]pyrido[1,2-a]pyrazin-7-yloxy)-3,4,5-trihydroxytetrahydro-2H-pyran-2-carboxylic acid) formation after 120 mins by radio-HPLC analysis. Format: ADME. Conditions: recombinant enzyme.
UDP-glucuronosyltransferase 2B7, sequence (P16662 whole entry): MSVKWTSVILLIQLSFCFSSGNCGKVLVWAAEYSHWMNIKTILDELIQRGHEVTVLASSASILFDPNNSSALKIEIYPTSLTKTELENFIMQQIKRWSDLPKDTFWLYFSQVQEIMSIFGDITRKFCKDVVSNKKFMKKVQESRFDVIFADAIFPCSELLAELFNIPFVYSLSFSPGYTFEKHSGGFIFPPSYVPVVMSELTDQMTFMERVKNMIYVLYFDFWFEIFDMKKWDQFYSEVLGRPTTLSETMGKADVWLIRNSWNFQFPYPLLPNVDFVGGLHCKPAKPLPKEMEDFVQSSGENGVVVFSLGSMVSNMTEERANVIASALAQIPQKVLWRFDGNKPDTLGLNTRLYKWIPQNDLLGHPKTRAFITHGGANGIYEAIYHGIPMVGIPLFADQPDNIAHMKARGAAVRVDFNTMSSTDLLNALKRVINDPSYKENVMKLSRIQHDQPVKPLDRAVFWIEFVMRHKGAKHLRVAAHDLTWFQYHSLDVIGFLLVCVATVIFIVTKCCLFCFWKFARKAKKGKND

A further series has as its target T3, BCRP (ABCG2) (Homo sapiens, UniProt Q9UNQ0).
T3 sequence (Q9UNQ0 whole entry): T2 sequence (Q9UNQ0 whole entry)
Kind of series: Activity at human BCRP expressed in MDCK2 cells assessed as apical to basolateral mass balance at 3 uM by liquid scintillation counting analysis. The series is classed as ADME, cell-based, MDCK-II. Conditions: read-out: Activity.

UDP-glucuronosyltransferase 1A3, sequence (P35503 whole entry): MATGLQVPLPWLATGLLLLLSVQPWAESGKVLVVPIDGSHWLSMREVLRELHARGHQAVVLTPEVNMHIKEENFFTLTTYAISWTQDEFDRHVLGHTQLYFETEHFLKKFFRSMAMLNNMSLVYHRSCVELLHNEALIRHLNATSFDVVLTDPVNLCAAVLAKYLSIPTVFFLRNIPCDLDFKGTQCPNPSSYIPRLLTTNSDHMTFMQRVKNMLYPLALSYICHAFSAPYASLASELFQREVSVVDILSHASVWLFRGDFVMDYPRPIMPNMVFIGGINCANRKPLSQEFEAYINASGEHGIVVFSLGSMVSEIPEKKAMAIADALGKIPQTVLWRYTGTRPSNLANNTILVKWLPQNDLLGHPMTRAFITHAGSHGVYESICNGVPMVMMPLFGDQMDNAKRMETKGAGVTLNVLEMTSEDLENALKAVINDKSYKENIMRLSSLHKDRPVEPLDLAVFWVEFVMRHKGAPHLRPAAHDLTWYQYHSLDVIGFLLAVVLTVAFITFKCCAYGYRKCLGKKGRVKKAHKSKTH
Solute carrier organic anion transporter family member 1B3, sequence (Q9NPD5 whole entry): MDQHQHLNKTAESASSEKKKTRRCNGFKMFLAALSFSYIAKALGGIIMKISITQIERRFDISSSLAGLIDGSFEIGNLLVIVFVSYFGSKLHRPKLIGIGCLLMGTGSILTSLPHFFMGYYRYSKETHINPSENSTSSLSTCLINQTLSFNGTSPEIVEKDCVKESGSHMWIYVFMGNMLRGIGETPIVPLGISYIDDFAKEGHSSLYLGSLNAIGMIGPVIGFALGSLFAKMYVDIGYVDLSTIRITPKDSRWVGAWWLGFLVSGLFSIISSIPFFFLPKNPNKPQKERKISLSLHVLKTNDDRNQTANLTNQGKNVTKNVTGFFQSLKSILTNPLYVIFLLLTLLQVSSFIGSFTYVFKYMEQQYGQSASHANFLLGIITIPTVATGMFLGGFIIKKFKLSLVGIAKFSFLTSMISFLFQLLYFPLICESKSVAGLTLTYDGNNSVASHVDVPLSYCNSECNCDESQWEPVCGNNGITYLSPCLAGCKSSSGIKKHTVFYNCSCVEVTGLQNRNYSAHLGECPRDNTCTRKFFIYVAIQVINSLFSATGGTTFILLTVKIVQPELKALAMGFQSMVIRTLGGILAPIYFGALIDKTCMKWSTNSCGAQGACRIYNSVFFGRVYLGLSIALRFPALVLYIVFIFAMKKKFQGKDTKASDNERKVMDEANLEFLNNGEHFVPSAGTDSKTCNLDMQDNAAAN

On to `C[C@@H]1CCO[C@H]2Cn3cc(C(=O)NCc4ccc(F)cc4F)c(=O)c(O)c3C(=O)N12` [DOLUTEGRAVIR], for which the IC50 (in series [1]; against Cytochrome P450 1A2) was more than 100 µM throughout. The Drug metabolism entry in [2] is “metabolite_not_detected”; in [5], “metabolite_detected”; in [6] it was “metabolite_not_detected”. In addition, the recovery at 3 µM at MDR1 (P-gp, ABCB1) was 84%; on BCRP (ABCG2) it was 81%. In series [3], the “inhibition (INH)” value worked out at 50%. Moreover, the dose excreted in series [4] came to 31.6%.
